Measurements published in publication PMC12051030, “Identification of inhibitors of the Salmonella FraB deglycase, a drug target” (FEBS Open Bio, 2025).

Columns and labels:
Salmonella tolC mutant = assay: Growth assay, Salmonella tolC mutant in wild‐type or fra island mutant background; assay type: cell-based; settings: early finding; could not be replicated after multiple attempts with stocks from different suppliers (data not shown)
Text: We sought to examine the possibility that some of the hits in the biochemical HTS were not picked up in the cell‐based assays due to efficient efflux mechanisms in Salmonella. Because TolC is an outer membrane protein channel that is essential for the ability of seven of the 10 inner membrane drug‐efflux transporters to expel structurally diverse molecules, we generated a Salmonella tolC mutant and tested the 121 compounds that we purchased (Sabag‐Daigle, A. & Ahmer, B. M. M., unpublished results). The tests were conducted in parallel using the tolC mutant in a wild‐type or fra island mutant background; the latter lacks the entire fra locus and is incapable of catabolizing F‐Asn and forming 6‐P‐F‐Asp. Thus, any inhibitor specific for FraB (and which was being effluxed in the wild‐type) will inhibit the tolC mutant in a wild‐type but not the fra island mutant background. A caveat is that efflux of compounds may also be achieved via TolC‐independent drug‐efflux pumps.

[1] = biological target: His6‐FraB (Salmonella FraB deglycase) (Salmonella enterica subsp. enterica serovar Typhimurium, UniProt Q8ZLD0); assay: FraB-G6PD coupled assay, Michaelis–Menten analysis for K I and mode of inhibition; assay type: biochemical
Sequence of His6‐FraB (Salmonella FraB deglycase) (Q8ZLD0 entry or part of it): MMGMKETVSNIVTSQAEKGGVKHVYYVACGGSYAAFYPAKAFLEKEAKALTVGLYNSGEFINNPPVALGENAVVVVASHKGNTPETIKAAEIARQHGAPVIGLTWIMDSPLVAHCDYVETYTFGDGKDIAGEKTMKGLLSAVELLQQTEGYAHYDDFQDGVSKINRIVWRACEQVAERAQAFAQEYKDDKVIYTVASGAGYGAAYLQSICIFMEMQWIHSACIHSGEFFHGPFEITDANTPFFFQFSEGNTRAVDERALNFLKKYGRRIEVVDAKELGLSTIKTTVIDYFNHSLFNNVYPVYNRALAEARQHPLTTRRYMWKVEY
Experimental: To determine the K I of each inhibitor, 29 μL of master mix was added to two rows of a 384‐well Greiner plate, using a single‐channel pipette, and incubated at 20 °C for 20 min. A 12‐channel pipette was then used to transfer and mix 1 μL of varying [6‐P‐F‐Asp] to all 48 wells. The final reaction (30 μL) consisted of 25 mM HEPES pH 8.0 at 20 °C, 5 mM MgCl2, 0.1 mM EGTA, 0.5 mM NAD^+, 1 mU G6PD, 100 nM His6‐FraB, varying (6‐P‐F‐Asp) (between 8 and 12 concentrations), and varying [inhibitor] (between three and five concentrations) in 10% (v/v) DMSO. NADH fluorescence was monitored every 10 s for 10 min total on a SPARK® multi‐mode multiplate reader (Tecan), as described above, and plotted against time. Slopes of the linear range of each curve were converted to initial velocities, as described above, that were then plotted against [6‐P‐F‐Asp]. A hyperbolic curve was then fitted to the data to obtain the k cat and K m values according to the formula: v o = (V max × [S])/(K m + [S]).
To determine the correlation between the observed and expected initial velocities (Fig. S5A), these values were exported from Kaleidagraph, plotted against one another, and a curve was fit using the formula: y = mx + b. The differences between observed and expected initial velocities (residuals) were then depicted as box‐and‐whisker plots (Fig. S5B). Lineweaver‐Burk plots were generated by graphing 1/v o versus 1/[S] and curves were fit to the data with Kaleidagraph using the formula: 1/v o = (Km/V max).(1/[S]) + (1/V max). The k cat and K m parameters were then converted into α′ values by dividing the k cat of the control (no inhibitor) by either itself (α′= 1) or the k cat of test samples with variable [inhibitor]. Those α′ values were plotted against [inhibitor] and K I values were determined from the equation α = 1 + [I]/K I.
The initial velocities used to generate the Michaelis–Menten plots were also employed to obtain the IC50 vs [S]/K m plots. For a given [S], initial velocities were converted into relative activities and plotted versus [inhibitor]. […] The IC50 values determined from the IC50 vs [S]/K m plots were then used to plot 1/IC50 versus v o/V max. A curve was fit to the data using the formula: y = mx + b. The Y‐intercept of the 1/IC50 versus v o/V max plot is equal to 1/K IC, and the slope, for mixed inhibitors, is equal to 1/K IU – 1/K IC. […] Data analyses were performed as described above (see Tables S1–S7 for curve‐fit errors and goodness‐of‐fit values).

Structure (SMILES): Fc1ccc(-c2nn3c(-c4ccccn4)nnc3s2)cc1 [3469:N17, 6‐(4‐fluorophenyl)‐3‐pyridin‐2‐yl‐[1,2,4]triazolo[3,4‐b][1,3,4]thiadiazole]
- inhibition of growth of Salmonella tolC, fra‐dependent (Salmonella tolC mutant): initially shown to inhibit the growth of Salmonella tolC in a fra‐dependent manner
- change of IC50 values with increasing [S]/K m ([1]; 'this trend' = IC50 does not vary with [S]/K m, change evident only from 0.2 to 1.6× [S]/K m): modest decrease
- slope in plots of 1/IC50 vs. v o/V max ([1]; Fig. S12): weakly positive
- IC50 ([1]; IC50 (IC50 versus [S]/Km plots), Trial 1, 6-P-F-Asp 7.38 µM, S/Km 0.175714, unit from Fig. S11 axis): 47.9 µM
- IC50 ([1]; IC50 (IC50 versus [S]/Km plots), Trial 1, 6-P-F-Asp 15.7 µM, S/Km 0.37381, unit from Fig. S11 axis): 45.4 µM
- IC50 ([1]; IC50 (IC50 versus [S]/Km plots), Trial 1, 6-P-F-Asp 31.3 µM, S/Km 0.745238, unit from Fig. S11 axis): 40.9 µM
- IC50 ([1]; IC50 (IC50 versus [S]/Km plots), Trial 1, 6-P-F-Asp 62.5 µM, S/Km 1.488095, unit from Fig. S11 axis): 34.9 µM
- IC50 ([1]; IC50 (IC50 versus [S]/Km plots), Trial 1, 6-P-F-Asp 125 µM, S/Km 2.97619, unit from Fig. S11 axis): 32.7 µM
- IC50 ([1]; IC50 (IC50 versus [S]/Km plots), Trial 1, 6-P-F-Asp 250 µM, S/Km 5.952381, unit from Fig. S11 axis): 34.1 µM
- IC50 ([1]; IC50 (IC50 versus [S]/Km plots), Trial 1, 6-P-F-Asp 500 µM, S/Km 11.90476, unit from Fig. S11 axis): 30.1 µM
- IC50 ([1]; IC50 (IC50 versus [S]/Km plots), Trial 1, 6-P-F-Asp 750 µM, S/Km 17.85714, unit from Fig. S11 axis): 33.4 µM
- IC50 ([1]; IC50 (IC50 versus [S]/Km plots), Trial 1, 6-P-F-Asp 1000 µM, S/Km 23.80952, unit from Fig. S11 axis): 32.7 µM
- IC50 ([1]; IC50 (IC50 versus [S]/Km plots), Trial 1, 6-P-F-Asp 2000 µM, S/Km 47.61905, unit from Fig. S11 axis): 32.5 µM
- IC50 ([1]; IC50 (IC50 versus [S]/Km plots), Trial 1, 6-P-F-Asp 3000 µM, S/Km 71.42857, unit from Fig. S11 axis): 39.3 µM
- IC50 ([1]; IC50 (IC50 versus [S]/Km plots), Trial 2, 6-P-F-Asp 7.38 µM, S/Km 0.175714, unit from Fig. S11 axis): 36.6 µM
- IC50 ([1]; IC50 (IC50 versus [S]/Km plots), Trial 2, 6-P-F-Asp 15.7 µM, S/Km 0.37381, unit from Fig. S11 axis): 44.8 µM
- IC50 ([1]; IC50 (IC50 versus [S]/Km plots), Trial 2, 6-P-F-Asp 31.3 µM, S/Km 0.745238, unit from Fig. S11 axis): 48.2 µM
- IC50 ([1]; IC50 (IC50 versus [S]/Km plots), Trial 2, 6-P-F-Asp 62.5 µM, S/Km 1.488095, unit from Fig. S11 axis): 48.5 µM
- IC50 ([1]; IC50 (IC50 versus [S]/Km plots), Trial 2, 6-P-F-Asp 125 µM, S/Km 2.97619, unit from Fig. S11 axis): 37.7 µM
- IC50 ([1]; IC50 (IC50 versus [S]/Km plots), Trial 2, 6-P-F-Asp 250 µM, S/Km 5.952381, unit from Fig. S11 axis): 34 µM
- IC50 ([1]; IC50 (IC50 versus [S]/Km plots), Trial 2, 6-P-F-Asp 500 µM, S/Km 11.90476, unit from Fig. S11 axis): 32.9 µM
- IC50 ([1]; IC50 (IC50 versus [S]/Km plots), Trial 2, 6-P-F-Asp 750 µM, S/Km 17.85714, unit from Fig. S11 axis): 35.9 µM
- IC50 ([1]; IC50 (IC50 versus [S]/Km plots), Trial 2, 6-P-F-Asp 1000 µM, S/Km 23.80952, unit from Fig. S11 axis): 34.9 µM
- IC50 ([1]; IC50 (IC50 versus [S]/Km plots), Trial 2, 6-P-F-Asp 2000 µM, S/Km 47.61905, unit from Fig. S11 axis): 39.2 µM
- IC50 ([1]; IC50 (IC50 versus [S]/Km plots), Trial 2, 6-P-F-Asp 3000 µM, S/Km 71.42857, unit from Fig. S11 axis): 42.2 µM
- IC50 ([1]; IC50, mean and standard deviation of all IC50 values in IC50 vs [S]/Km plot, trial shown in Fig. S11 panels M-X): 40 ± 6 µM
- Ki ([1]; K I, from Michaelis–Menten analysis of FraB at different inhibitor concentrations, average and standard error from two measurements): 28.5 ± 3.5 µM
- Ki ([1]; KI from α′ vs [I] plot, trial shown in Fig. S11 panels M-X): 25 µM
- Ki ([1]; KI from α′ vs [I] plot, trial shown in Fig. S11 panels Y-AJ): 32 µM
- K IU/K IC ratio ([1]; average (±SE), from 1/IC50 versus v o/V max plots): 0.7 ± 0.1
- mode of inhibition ([1]; kinetic analyses (Lineweaver‐Burk, α′ vs [I], IC50 vs [S]/K m, 1/IC50 vs v o/V max)): mixed‐type uncompetitive
